The values below come from patent publication US20060079479A1, “Methods of inducing vasodilation” (priority 2004, published 2006).

In one data set the test system is human subjects. Description: Forearm blood flow (FBF) after infusion into forearm arteries of human subjects. The class given is in vivo. As to conditions: for forearm blood flow (FBF) before infusion (baseline): baseline value before forearm artery infusion; for forearm blood flow (vasodilation) at calculated equimolar concentrations: forearm artery infusion, calculated equimolar 1 μmol/min. On the procedure: Blood pressure, heart rate, and respiration were continuously monitored throughout the administration. A physician was present throughout the study and monitored for side effects. At the end of each infusion period, the forearm blood flow (FBF) of each subject was then measured by standard techniques.
A physician was present, and the subject was monitored throughout the infusion, as in Example 1.

For data set [1] the following is noted: in pharmaceutically acceptable carriers; cited from earlier work.
The conditions of data set [2]: uptake by nucleoside transporter in red blood cells; cited from earlier work.
The mark [3] stands for this setting: forearm artery infusion 0.125 mg/min for 15 minutes.

With `Nc1ncnc2c1ncn2[C@@H]1O[C@H](COP(=O)(O)O)[C@@H](O)[C@H]1O` [AMP, Adenosine 5′-monophosphate], the “vasodilation compared with adenosine at calculated equimolar concentrations” value in the data set with human subjects (1 μmol/min, p<0.02) is reported as “significantly greater vasodilation”. In the data set with human subjects, the “forearm blood flow (FBF) before infusion (baseline)” value is 3.8±0.5 ml/100 ml/min and the “forearm blood flow (vasodilation) at calculated equimolar concentrations” value is on record as 19.4±1.8 ml/100 ml/min. Further, the “forearm blood flow (FBF) at end of infusion” value with human subjects (setting [3]) stood at 16.3±1.6 ml/100 ml/min. In addition, the “forearm blood flow (FBF) at end of infusion” value with human subjects (forearm artery infusion 0.5 mg/min for 15 minutes) came to 20.7±1.8 ml/100 ml/min. Moreover, the limit of solubility entry in data set [1] is on record as “approximately 400 mg/ml”.

Take `Nc1ncnc2c1ncn2[C@@H]1O[C@H](CO)[C@@H](O)[C@H]1O` [adenosine, reference compound]: the half-life in blood entry in data set [2] is reported as “less than 1 second”. For the same compound, in the data set on human subjects, the “forearm blood flow (FBF) before infusion (baseline)” value stood at 3.1±0.2 ml/100 ml/min and the “forearm blood flow (vasodilation) at calculated equimolar concentrations” value is given as 15.6±1.9 ml/100 ml/min. Also, the “forearm blood flow (FBF) at end of infusion” value in the data set with human subjects (setting [3]) is recorded as 14.2±2.0 ml/100 ml/min. Also, the limit of solubility result in data set [1] is given as “approximately 5 mg/ml”.
